Experimental findings from US7557110B2, “Pyrazolo[1,5-A] pyrimidine derivatives” (Teijin Pharma Limited, priority 2003, dated 2009) are described below.

Data set [1] concerns the target MAPKAP-K2 (Homo sapiens, UniProt P49137). Kind of data set: MAPKAP-K2 enzyme activity inhibition (33P-ATP filter plate kinase assay). Also: key: +: active; ++: more active; +++: very active. To be noted: MAPKAP-K2 inhibitory activity; assays conducted at typically 1-100 μM. It is filed as biochemical. The method, then:
[General Procedure for Measurement of MAPKAP-K2 Enzyme Activity Inhibition]
After conducting the reaction for 30 minutes at room temperature, an equivalent volume of a 200 mM phosphoric acid solution was added to suspend the reaction, and 90 μL of the reaction product was adsorbed onto a MultiScreen PH plate (Millipore) and rinsed with a 100 mM phosphoric acid solution. After drying the plate, 30 μL of MicroScint-O (Packard BioScience) was added, and the cpm was measured with a scintillation counter to determine the inhibiting activity. Substrate peptide is […]

Data set [2] concerns the target CDK-2 (Homo sapiens, UniProt P24941). Kind of data set: CDK-2 enzyme activity inhibition (33P-ATP filter plate kinase assay). The class given is biochemical. An excerpt:
[General Procedure for Measurement of CDK-2 Enzyme Activity Inhibition]

The mark [3] stands for this setting: read-out: CDK-2 inhibition IC50.

Read-outs that look alike come from different tables or passages of the source. Bounds are passed on as bounds.

MAPKAP-K2, sequence (P49137 whole entry): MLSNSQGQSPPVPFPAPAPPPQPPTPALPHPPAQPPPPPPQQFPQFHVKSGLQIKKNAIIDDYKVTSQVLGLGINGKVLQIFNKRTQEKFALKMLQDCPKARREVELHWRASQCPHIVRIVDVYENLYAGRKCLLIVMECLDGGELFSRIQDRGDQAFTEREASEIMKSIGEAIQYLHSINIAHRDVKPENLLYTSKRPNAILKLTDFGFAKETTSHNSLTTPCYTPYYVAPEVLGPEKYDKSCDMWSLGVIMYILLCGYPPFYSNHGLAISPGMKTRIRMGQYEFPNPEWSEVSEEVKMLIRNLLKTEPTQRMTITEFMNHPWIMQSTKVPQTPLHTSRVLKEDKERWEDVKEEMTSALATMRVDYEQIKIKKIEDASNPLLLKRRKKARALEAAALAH

`Cc1c(N[C@H]2CC[C@H](N)CC2)nc2ccnn2c1Nc1cccc(Cl)c1` [Compound 85] came in with a melting point of 209 to 212 °C. Moreover, the “activity (efficacy against MAPKAP-K2)” value in data set [1] is recorded as “+++”. Further, in data set [2] (setting [3]), the IC50 is under 100 µM.
For `CCCCOc1ccc(Nc2c(CC)c(N[C@H]3CC[C@H](N)CC3)nc3ccnn23)cc1` [Compound 56], the melting point fell in the range of 144 to 148 °C. Further, the “activity (efficacy against MAPKAP-K2)” value in data set [1] is listed as “+++”. Further, the IC50 in data set [2] (setting [3]) was under 100 µM.
For `Cc1nn2c(Nc3ccc(F)c(Cl)c3)cc(N[C@H]3CC[C@H](N)CC3)nc2c1Br` [Compound 6], the melting point was 224 to 226 °C (dec.). Further, the IC50 in data set [2] (setting [3]) was under 100 µM.
As for `Cc1c(N[C@H]2CC[C@H](N)CC2)nc2ccnn2c1Nc1ccc(-c2cccc(C(F)(F)F)c2)cc1` [Compound 324], the “activity (efficacy against MAPKAP-K2)” value in data set [1] is “+++”. Further, the IC50 in data set [2] (setting [3]) is under 100 µM.
The matching figures for `Cc1c(N[C@H]2CC[C@H](N)CC2)nc2ccnn2c1Nc1ccc(-c2ccccc2Cl)cc1` [Compound 313]: “++” and under 100 µM.
Regarding `CCOc1ccc(Nc2c(C)c(N(C)C3CCCNC3)nc3ccnn23)cc1` (stereo not shown) [Compound 340], in data set [1], the “activity (efficacy against MAPKAP-K2)” value is reported as “+”. For the same compound, the IC50 in data set [2] (setting [3]) is under 100 µM.
For `CCc1c(N[C@H]2CC[C@H](N)CC2)nc2ccnn2c1Nc1ccc(N2CCCC2=O)cc1` [Compound 125], the “activity (efficacy against MAPKAP-K2)” value in data set [1] was “++”. For the same compound, the 50% inhibitory concentration (IC50) in data set [2] (setting [3]) was under 100 µM.
For `Cc1c(N[C@H]2CC[C@H](N)CC2)nc2ccnn2c1Nc1ccc(C(=O)NC2CCCC2)cc1` [Compound 463], the “activity (efficacy against MAPKAP-K2)” value in data set [1] was “+++”. Moreover, in data set [2] (setting [3]), the IC50 is under 100 µM.
The matching figures for `Cc1c(N[C@H]2CC[C@H](N)CC2)nc2ccnn2c1Nc1ccc(OCCN2CCCCC2)cc1` [Compound 223]: “+++” and under 100 µM.
Consider `Cc1c(N[C@H]2CC[C@H](N)CC2)nc2ccnn2c1Nc1ccc(-c2ccc(CO)cc2)cc1` [Compound 352], for which the “activity (efficacy against MAPKAP-K2)” value in data set [1] is recorded as “+++”. The IC50 in data set [2] (setting [3]) is under 100 µM.
Consider `Cc1c(N[C@H]2CC[C@H](N)CC2)nc2ccnn2c1Nc1cccc(OCc2cccc(Cl)c2)c1` [Compound 247], for which, in data set [1], the “activity (efficacy against MAPKAP-K2)” value is on record as “++”. Further, in data set [2] (setting [3]), the IC50 was under 100 µM.
On to `CCc1c(N[C@H]2CC[C@H](N)CC2)nc2ccnn2c1Nc1cccc(OCc2ccccc2)c1` [Compound 74], for which the “activity (efficacy against MAPKAP-K2)” value in data set [1] is “++”. The IC50 in data set [2] (setting [3]) is under 100 µM.
For the compound `N[C@H]1CC[C@H](Nc2cc(NCc3ccc(F)c(Cl)c3)n3ncc(Br)c3n2)CC1` [Compound 13], in data set [1], the “activity (efficacy against MAPKAP-K2)” value is “+”. Further, the IC50 in data set [2] (setting [3]) was under 100 µM.
Regarding `Cc1c(N[C@H]2CC[C@H](N)CC2)nc2ccnn2c1Nc1ccc(-c2ccoc2)cc1` [Compound 309], the “activity (efficacy against MAPKAP-K2)” value in data set [1] is on record as “+++”. The concentration for half-maximal inhibition (IC50) in data set [2] (setting [3]) was under 100 µM.
Taken in the same sequence, the figures for `Cc1c(N[C@H]2CC[C@H](N)CC2)nc2ccnn2c1Nc1ccc(C(=O)Nc2ccccc2)cc1` [Compound 776] were “+++” and under 100 µM.
Turning to `N#Cc1cnn2c(Nc3ccc(F)c(Cl)c3)cc(N[C@H]3CC[C@H](N)CC3)nc12` [Compound 1], the “activity (efficacy against MAPKAP-K2)” value in data set [1] is listed as “++”. The same compound had an IC50 in data set [2] of under 100 µM.
In the case of `Cc1ccccc1-c1ccc(Nc2c(C)c(N[C@H]3CC[C@H](N)CC3)nc3ccnn23)cc1` [Compound 321], the “activity (efficacy against MAPKAP-K2)” value in data set [1] was “+++”. The IC50 in data set [2] (setting [3]) was under 100 µM.
Taken in the same sequence, the figures for `CCOC(=O)c1ccc(Nc2c(CC)c(N[C@H]3CC[C@H](N)CC3)nc3ccnn23)cc1Cl` [Compound 137] were “+++” and under 100 µM.
For the compound `Cc1c(N[C@H]2CC[C@H](N)CC2)nc2ccnn2c1Nc1ccc(OCc2ccccc2)cc1` [Compound 176], the “activity (efficacy against MAPKAP-K2)” value in data set [1] is reported as “+++”. The IC50 in data set [2] (setting [3]) is under 100 µM.
Regarding `N[C@H]1CC[C@H](Nc2cc(NCc3cccc(Cl)c3)n3ncc(I)c3n2)CC1` [Compound 297, {5-[(trans-4-aminocyclohexyl)amino]-3-iodo(pyrazolo[1,5-a]pyrimidin-7-yl)}[(3-chlorophenyl)methyl]amine], the “activity (efficacy against MAPKAP-K2)” value in data set [1] is given as “++”. For the same compound, the IC50 in data set [2] (setting [3]) is under 100 µM.
Taken in the same sequence, the figures for `CCCOc1ccc(Nc2c(C)c(N[C@H]3CC[C@H](N)CC3)nc3ccnn23)cc1` [Compound 201] were “+++” and under 100 µM.
`Cc1c(N[C@H]2CC[C@H](N)CC2)nc2ccnn2c1Nc1cccc(OCc2ccccc2)c1` [Compound 243]: the “activity (efficacy against MAPKAP-K2)” value in data set [1] is given as “++”. The concentration for half-maximal inhibition (IC50) in data set [2] (setting [3]) is under 100 µM.
Take `CCOc1ccc(Nc2c(-c3ccc(OC)cc3)c(N[C@H]3CC[C@H](N)CC3)nc3ccnn23)cc1` [Compound 140]: the “activity (efficacy against MAPKAP-K2)” value in data set [1] was “+++”. Further, the IC50 in data set [2] (setting [3]) is under 100 µM.
With `Cc1c(NC2CCCNC2)nc2ccnn2c1Nc1ccccc1F` (stereo not shown) [Compound 156], the “activity (efficacy against MAPKAP-K2)” value in data set [1] is recorded as “+++”. Moreover, the IC50 in data set [2] (setting [3]) was under 100 µM.
Turning to `CCOc1ccc(Nc2c(C)c(N[C@H]3CC[C@H](N)CC3)nc3c(NC)cnn23)cc1` [Compound 437], the “activity (efficacy against MAPKAP-K2)” value in data set [1] is reported as “+”. Besides, the IC50 in data set [2] (setting [3]) was under 100 µM.
Regarding `CC(=O)c1ccc(-c2ccc(Nc3c(C)c(N[C@H]4CCCNC4)nc4ccnn34)cc2)s1` [Compound 773], the “activity (efficacy against MAPKAP-K2)” value in data set [1] is recorded as “+++”. Moreover, in data set [2], the IC50 is under 100 µM.
Consider `Cc1c(N[C@H]2CC[C@H](N)CC2)nc2ccnn2c1Nc1ccc(-c2ccc(O)cc2)cc1` [Compound 306], for which the “activity (efficacy against MAPKAP-K2)” value in data set [1] is listed as “+++”. Further, the IC50 in data set [2] (setting [3]) is under 100 µM.
For `Cc1c(N[C@H]2CC[C@H](N)CC2)nc2ccnn2c1Nc1ccc(-c2cccc(C#N)c2)cc1` [Compound 319], in data set [1], the “activity (efficacy against MAPKAP-K2)” value is given as “+++”. For the same compound, the IC50 in data set [2] (setting [3]) is under 100 µM.
The matching figures for `Cc1c(N[C@H]2CC[C@H](N)CC2)nc2ccnn2c1Nc1ccc(-c2ccc(OC(F)(F)F)cc2)cc1` [Compound 317]: “+++” and under 100 µM.
The matching figures for `CNC(=O)c1ccc(Nc2c(C)c(N[C@H]3CC[C@H](N)CC3)nc3ccnn23)cc1` [Compound 460]: “+++” and under 100 µM.
As for `CCOC(=O)c1ccc(Nc2c(CC)c(N[C@H]3CC[C@H](N)CC3)nc3ccnn23)cc1` [Compound 70], the “activity (efficacy against MAPKAP-K2)” value in data set [1] is on record as “+++”. Further, the concentration for half-maximal inhibition (IC50) in data set [2] (setting [3]) is under 100 µM.
The matching figures for `COc1ccccc1-c1ccc(Nc2c(C)c(N[C@H]3CC[C@H](N)CC3)nc3ccnn23)cc1` [Compound 287]: “+++” and under 100 µM.
Taken in the same sequence, the figures for `Cc1c(NC2CCC(N)CC2)nc2ccnn2c1Nc1ccc(OCC2CCCCN2)cc1` (stereo not shown) [Compound 251] were “+++” and under 100 µM.
The matching figures for `Cc1c(N[C@H]2CC[C@H](N)CC2)nc2ccnn2c1Nc1ccc2cn[nH]c2c1` [Compound 131]: “+++” and under 100 µM.
Regarding `Cc1c(N[C@H]2CC[C@H](N)CC2)nc2ccnn2c1Nc1ccc(-c2cc3ccccc3s2)cc1` [Compound 289], the “activity (efficacy against MAPKAP-K2)” value in data set [1] is “+++”. The concentration for half-maximal inhibition (IC50) in data set [2] (setting [3]) was under 100 µM.
For the compound `Cc1c(N[C@H]2CC[C@H](N)CC2)nc2ccnn2c1Nc1ccc(OCCN2CCOCC2)cc1` [Compound 221], the “activity (efficacy against MAPKAP-K2)” value in data set [1] is on record as “+++”. Moreover, in data set [2] (setting [3]), the IC50 is under 100 µM.
The matching figures for `Cc1c(NC2CCCNC2)nc2ccnn2c1Nc1ccc(-c2cccc(CO)c2)cc1` (stereo not shown) [Compound 445]: “+++” and under 100 µM.
Take `CCc1c(NC2CCCNC2)nc2ccnn2c1Nc1ccc(Oc2ccc(C)cc2)cc1` (stereo not shown) [Compound 63]: the “activity (efficacy against MAPKAP-K2)” value in data set [1] was “+++”. Further, the IC50 in data set [2] (setting [3]) is under 100 µM.
For `Cc1c(N[C@H]2CC[C@H](N)CC2)nc2ccnn2c1Nc1ccc(-c2ccc(N(C)C)cc2)cc1` [Compound 314], the “activity (efficacy against MAPKAP-K2)” value in data set [1] is on record as “+++”. Further, the IC50 in data set [2] (setting [3]) was under 100 µM.
Taken in the same sequence, the figures for `Cc1c(N[C@H]2CC[C@H](N)CC2)nc2ccnn2c1Nc1ccc(OC2CCCC2)cc1` [Compound 216] were “+++” and under 100 µM.
Taken in the same sequence, the figures for `CCOc1ccc(Nc2c(OC)c(NC3CCCNC3)nc3ccnn23)cc1` (stereo not shown) [Compound 173] were “+++” and under 100 µM.
Taken in the same sequence, the figures for `Cc1c(N[C@H]2CC[C@H](N)CC2)nc2ccnn2c1Nc1ccc(OC(C)C)cc1` [Compound 197, {5-[(trans-4-aminocyclohexyl)amino]-6-methyl(pyrazolo[1,5-a]pyrimidin-7-yl)}[4-(methylethoxy)phenyl]amine] were “+++” and under 100 µM.
The compound `CCOc1ccc(Nc2c(C)c(N[C@H]3CC[C@H](N)CC3)nc3c(CO)cnn23)cc1` [Compound 92] displayed a melting point of 101 to 104 °C. Moreover, in data set [2] (setting [3]), the IC50 is under 100 µM.
Take `Cc1c(N[C@H]2CC[C@H](N)CC2)nc2ccnn2c1Nc1cccc(OCc2cccnc2)c1` [Compound 274]: the “activity (efficacy against MAPKAP-K2)” value in data set [1] is listed as “++”. Further, the IC50 in data set [2] (setting [3]) was under 100 µM.
The matching figures for `Cc1c(N[C@H]2CC[C@H](N)CC2)nc2ccnn2c1Nc1ccc(-c2cccc(N(C)C)c2)cc1` [Compound 315]: “+++” and under 100 µM.
Taken in the same sequence, the figures for `Cc1c(N[C@H]2CC[C@H](N)CC2)nc2ccnn2c1Nc1ccc(-c2ccc(C#N)cc2)cc1` [Compound 318] were “+++” and under 100 µM.

By melting point is commonly meant the temperature of the solid-liquid transition. Broadly, the IC50 is the point on the concentration scale where inhibition reaches its midpoint.
